Laboratory results from patent US20050245465A1, “Compounds for treating Alzheimer's disease and for inhibiting beta-amyloid peptitde production” (priority 2004, published 2005).
Entries after “also recorded” stand apart in the source; their conditions may differ. Where two headings read alike, the source gives them in different places.

Columns and labels:
γ-secretase = assay: Cell-free γ-secretase assay (CHAPSO-solubilized membrane fractions, Aβ ELISA); assay type: biochemical; conditions: for IC50: cell-free γ-secretase assay
Protocol: (A) CHAPSO-solubilized membrane fractions were incubated with recombinant γ-secretase substrates together with the indicated compounds (at 100 μM) and the levels of Aβ42 and Aβ40 were determined by ELISA as described (27-29). (B) Dose-response of Aβ40 and Aβ42-lowering activity of Rk1 and (20S)Rg3 in a cell-free γ-secretase assay.
Next, the inhibitory effects of Rk1 and (20S)Rg3 on Aβ generation in an in vitro γ-secretase assay was studied. […] In contrast, naproxen, an NSAID without Aβ42-lowering activity, had no effects on Aβ42 production (FIG. 15A).

[1] = tested on: CHO cells expressing human APP; assay: Secreted Aβ40/Aβ42 ELISA in medium of CHO-APP cells; assay type: cell-based, Chinese hamster; design: key to Aβ42-lowering activity: Aβ42-lowering activity (“Yes”); no profound effects (“No”); non-determined (“ND”); Ginsenosides that affected cell viability are indicated as “Cytotoxic.”; conditions: for Aβ42-lowering activity: Tables 1-3; for secretion of Aβ42 (initial screening): heat-processing derived ginsenosides; for production of Aβ42 in cells (summary statement): mammalian cells, in vitro
Protocol: The CHO cells were treated with the indicated compounds (at 50 μg/ml) for 8 hrs. Aβ42 levels in the medium were measured by ELISA and normalized to intracellular full-length APP.
The potential effects of ginsenosides and their analogues in treating AD were examined. First, a number of ginsenosides were screened based on their effects on Aβ generation. The effects of various ginsenosides on Aβ (e.g., Aβ40 and Aβ42) production was initially accessed by incubating the Chinese hamster ovary (CHO) cells expressing human APP(CHO-APP cells) with each ginsenoside purified from unprocessed ginseng (known as “white ginseng”). These representative ginsenosides included Rb1, Rb2, Rc, Rd, Re, Re, Rg1 and Rg2 and differ in their side chains and sugar moieties.
After 8 hours of incubation, the media were collected and the levels of secreted Aβ40 and Aβ42 were determined by ELISA.
Steaming ginseng at high temperature gave rise to additional ginsenosides with enhanced pharmacological activity, including (20S)Rg3, Rk1 and Rg5 (22-25). Next, the effects of these heat-processing derived ginsenosides (e.g., (20S)Rg3, Rh1, Rh2, Rk1, Rg6, Rg5) on Aβ40 and Aβ42 generation were tested. […] In contrast, Aβ42 levels were not affected by (20R)Rg3, Rh1, and Rg6. Aβ40 levels were not changed by treatment with any of the ginsenosides tested. The potency of Aβ42-lowering activity was highest with Rk1 and (20S)Rg3. […] The secretion of Aβ40 was affected by treatment with Rk1 only at very high concentration (˜100 μM) and cell viability was not affected by treatment of Rk1 under these conditions (up to 100 μM, 8 hour treatment; data not shown). […] Overnight treatment with Rgk351, Rk1, and Rg5 also reduce Aβ42 production in CHO-APP cells (FIG. 12B). […] These studies provide a structure-activity relationship between the chemical structures of ginsenosides and Aβ42-lowering activity, further providing the basis for designing additional Aβ42-lowering analogues as well as for defining a class of compounds that harbor Aβ42-lowering activity.

CHO-APP/ΔE9PS1 cells = assay: Secreted Aβ40/Aβ42 ELISA in CHO-APP/ΔE9PS1 cells; assay type: cell-based, Chinese hamster; conditions: 50 μM, 8 hrs
Protocol: (§1) FIG. 10 depicts the effects of native ginsenosides on Aβ42 production. CHO cells stably transfected with human APP695 together with either wild-type (A, CHO-APP/PS1 cells) or ΔE9 FAD mutant (B, CHO-APP/ΔE9PS1 cells) forms of PS1 were used. Cells were treated with the indicated compounds (at 50 μM) for 8 hrs. Levels of secreted Aβ40 and Aβ42 in the medium were determined by ELISA and normalized to intracellular full-length APP. In CHO-APP/PS1 cells, average Aβ amounts in control samples were 320 pM for Aβ40 and 79 pM for Aβ42. The relative levels of Aβ and Aβ42 were normalized to values obtained from non-treated and vehicle-treated cells and are shown as % to control+s.d.). One of three representative experiments are shown.
(§2) CHO-APP/PS1 (A) and CHO-APP/ΔE9PS1 (B) cells were treated with the indicated compounds at 50 μM for 8 hrs and the levels of secreted Aβ40 and Aβ42 were determined as described in FIG. 1. […] The PS1-ΔE9 FAD mutation diminished the Aβ42 response to Rk1 treatment (B).
Steaming ginseng at high temperature gave rise to additional ginsenosides with enhanced pharmacological activity, including (20S)Rg3, Rk1 and Rg5 (22-25). Next, the effects of these heat-processing derived ginsenosides (e.g., (20S)Rg3, Rh1, Rh2, Rk1, Rg6, Rg5) on Aβ40 and Aβ42 generation were tested. […] In contrast, Aβ42 levels were not affected by (20R)Rg3, Rh1, and Rg6. Aβ40 levels were not changed by treatment with any of the ginsenosides tested. The potency of Aβ42-lowering activity was highest with Rk1 and (20S)Rg3. […] The secretion of Aβ40 was affected by treatment with Rk1 only at very high concentration (˜100 μM) and cell viability was not affected by treatment of Rk1 under these conditions (up to 100 μM, 8 hour treatment; data not shown). […] Overnight treatment with Rgk351, Rk1, and Rg5 also reduce Aβ42 production in CHO-APP cells (FIG. 12B). […]

CHO-APP/PS1 cells = assay: Secreted Aβ40/Aβ42 ELISA in CHO-APP/PS1 cells; assay type: cell-based, Chinese hamster; conditions: for potency of Aβ42-reducing activity (order): 50 μM, 8 hrs
Protocol: as §1, §2

[2] = tested on: primary embryonic cortical neurons derived from Tg2576 transgenic mice; assay: Aβ40 and Aβ42 secretion in primary embryonic cortical neurons; assay type: cell-based
Description: Treatment of Rk1 and Rg3 decreased the level of secreted Aβ40 and Aβ42.

CHO-APP cells = assay: Mass spectrometric analysis of Aβ species from CHO-APP cells; assay type: cell-based, Chinese hamster; conditions: mass spectrometry, vs DMSO
Protocol: Note that treatment leads to a decrease in Aβ42 species (1-42), and elevation in both Aβ37 (1-37) and Aβ38 (1-38). Mass spectrometric analysis of Aβ species were performed as previously described (Wang R, Sweeny D, Gandy S E, Sisodia S S. The profile of soluble amyloid β-protein in cultured cell media. J. Bio. Chem. 1996; 271: 31894-31902).

APP = assay: Western blot of APP processing in CHO-APP and Neuro2a-APPsw cells; assay type: cell-based, Chinese hamster and mouse; conditions: cell lysates
Description: FIG. 13. depicts an analysis of APP processing after Rk1 treatment. Steady-state levels of full-length APP and APP C-terminal fragments (APP-CTFs) were examined by Western blot analysis using anti-R1 antibody. […] Correlated Aβ42 levels for each sample are shown in the bottom panel.

| Compound | IC50 (γ-secretase; read-out: IC50 for Aβ40) | IC50 (γ-secretase; read-out: IC50 for Aβ42) | Aβ40 and Aβ42 generation in cell-free γ-secretase assay (γ-secretase; dose-response) | potency of Aβ42-lowering activity (comparison among ginsenosides) [1] | Aβ42-lowering activity [1] | secretion of Aβ42 (initial screening) [1] | production of Aβ42 in cells (summary statement) [1] | Aβ42-lowering response in PS1 ΔE9 FAD mutant cells vs PS1 wild-type cells (CHO-APP/ΔE9PS1 cells) | potency of Aβ42-reducing activity (order) (CHO-APP/PS1 cells) | level of secreted Aβ40 and Aβ42 [2] | Aβ37 (1-37) and Aβ38 (1-38) (CHO-APP cells) | Aβ42 species (1-42) (CHO-APP cells) | Aβ42 in the medium, dose-dependence ([1]; CHO cells expressing human APP) | generation of Aβ42 (Aβ42 levels in the medium, ELISA, normalized to intracellular full-length APP) ([1]; CHO cells stably transfected with human APP695, 50 μg/ml, 8 hrs) | Aβ42 vs. Aβ40 in the medium (preference) ([1]; CHO-APP cells, normalized to non-treated and vehicle-treated cells) | Aβ42 production ([1]; overnight treatment, CHO-APP cells) | Aβ42 levels (CHO-APP/PS1 cells; CHO cells co-expressing human APP with wild-type PS1 or FAD mutant PS1 (delta E9, L286V)) | full-length APP levels (APP) | APP C-terminal fragments (γ-secretase substrates) (APP; CHO-APP and Neuro2a APPsw cells) |
| --- | --- | --- | --- | --- | --- | --- | --- | --- | --- | --- | --- | --- | --- | --- | --- | --- | --- | --- | --- |
| CC(C)=CCC[C@](C)(O)[C@H]1CC[C@]2(C)[C@@H]1[C@H](O)C[C@@H]1[C@@]3(C)CC[C@H](O[C@@H]4O[C@H](CO)[C@@H](O)[C@H](O)[C@H]4O[C@@H]4O[C@H](CO)[C@@H](O)[C@H](O)[C@H]4O)C(C)(C)[C@@H]3CC[C@]12C [(20S)Rg3] | 27 ± 4 µM | 26 ± 7 µM | inhibits; also recorded: inhibited both Aβ40 and Aβ42 with a similar potency | highest | Yes | selectively lowered | lower | diminished | Rk1>/=(20S)Rg3>Rg5>(20R)Rg3 | decreased | elevation | decrease | – | – | – | – | – | – | – |
| CC(C)=CC/C=C(\C)[C@H]1CC[C@]2(C)[C@@H]1[C@H](O)C[C@@H]1[C@@]3(C)CC[C@H](O[C@@H]4O[C@H](CO)[C@@H](O)[C@H](O)[C@H]4O[C@@H]4O[C@H](CO)[C@@H](O)[C@H](O)[C@H]4O)C(C)(C)[C@@H]3CC[C@]12C [Rg5] | – | – | – | much smaller as compared to Rgk351 and Rk1; also recorded: less effective | Yes | selectively lowered | lower | diminished | Rk1>/=(20S)Rg3>Rg5>(20R)Rg3 | – | – | – | reduced; also recorded: lower Aβ42 in a dose-dependent manner | reduce | preferentially reduced Aβ42 (vs. Aβ40) | reduce | much smaller as compared to Rgk351 and Rk1 | not affected | increased accumulation |
